The nature of data set [1]: Calcium tolerance test in mice (weight gain, highest tolerated dose). Particulars: mouse, in vivo, sc, daily subcutaneous, 4 consecutive days, body weight before and at end of 5 day treatment period, read-out: HTD (highest tolerated dose: dose which results in zero weight gain during treatment period). An excerpt: Calcium Tolerance Test In Mice
Profound changes in calcium homeostasis strongly affect the weight development of mice.
Mice (25-30 g body weight) received daily subcutaneous administrations of the compound for 4 consecutive days. Body weight was registered just before and at the end of a […] treatment period. The "highest tolerated dose" (HTD) is the dose which results in zero weight gain during this treatment period.

Data set [2] deals with HL-60 cells. Briefly: HL-60 cell differentiation (NBT reduction, oxidative burst potential). To be noted: Homo sapiens, 72 h, 3 days incubation, NBT reduction at 540 nm, mean of 3 wells, S.E.M. between 5 and 10%, read-out: ED50 (concentration leading to 50% of maximal differentiation achieved with 100-1000 nM calcitriol). The class given is cell-based. The procedure: HL-60 Cell Differentiation
The induction of differentiation of HL-60 cells was assayed by measuring their oxidative burst potential via the reduction of nitrobluetetrazolium (NBT).
HL-60 cells (30,000 cells in 90 μl of supplemented RPMI medium) were seeded into flat-bottomed microliter wells. Immediately after seeding, 10 μl of test compounds listed below in Table I diluted in supplemented RPMI medium were added to the wells to yield final concentrations of between 10^-11 and 10^-6 M (starting from stock solutions of 10^-2 M in ethanol, stored at -20° C. and protected from light). After 3 days, medium was removed from the wells with a multichannel pipette and replaced with 100 μl of NBT solution (1 mg/ml in phosphate buffered saline with 200 nM phorbol myristate acetate). Following an additional hour incubation at 37° C. the NBT solution was removed and 100 μl of 10% sodium dodecyl sulfate in 0.01 N HCl was added. The amount of the reduced NBT was quantified photometrically at 540 nm using an automated plate reader. The mean of 3 wells was calculated. […] Values were expressed as percent of maximal differentiation achieved with 100-1000 nM calcitriol in the same experiment.

For the compound `C=C1/C(=C\C=C2/CCC[C@]3(C)C([C@H](C)C/C=C/C(O)(CC)CC)=CC[C@@H]23)C[C@@H](O)C[C@@H]1O` [1,25-Dihydroxy-16,23E-diene-26,27-bishomo-cholecalciferol], the MTD in data set [1] was found to be 2 µg/kg. Also, the EC50 in data set [2] is 3.8 nM.
As for `C=C1/C(=C\C=C2/CCC[C@]3(C)C([C@H](C)C/C=C\C(O)(CC)CC)=CC[C@@H]23)C[C@@H](O)C[C@@H]1O` [1,25-Dihydroxy-16,23Z-diene-26,27-bishomo-cholecalciferol], the MTD in data set [1] is 2.5 µg/kg. In data set [2], the EC50 turned out to be 6.2 nM.
The corresponding values for `C=C1/C(=C\C=C2/CCC[C@]3(C)C([C@H](C)CC#CC(O)(CC)CC)=CC[C@@H]23)C[C@@H](O)C[C@@H]1O` [1,25-Dihydroxy-16-ene-23-yne-26,27-bishomo-cholecalciferol] are 4 µg/kg and 2.5 nM.
